From patent publication US20250281478A1, “METHODS FOR PREVENTING OR TREATING KIDNEY DISEASES” (JEAMOON BEIJING CO., LTD., priority 2022, published 2025)

Experiments:
Format in all cases: in vivo, C57BL/6N mice
[1] = tested on: mice with sustained adenine-induced renal failure; assay: Glomerular filtration rate in mice with sustained adenine-induced renal failure (TGFR system); conditions: 3 weeks continuous 0.25% adenine diet, FIG. 4
Method: (§1) • a) Control group: Fed with adenine-free feed; other procedures were the same as those in the model group. • b) Model group: Fed with feed containing 0.25% adenine for modelling. • c) LY-10 mg/kg group: Model+LY2922470 (10 mg/kg, p.o., QD). • d) LY-30 mg/kg group: Model+LY2922470 (30 mg/kg, p.o., QD). • e) LY-60 mg/kg group: Model+LY2922470 (60 mg/kg, p.o., QD). • f) TAK875 group: Model+TAK875 (30 mg/kg, p.o., QD).
(§2) Except for the control group, all other mice were fed with a diet containing 0.25% adenine for modelling. The control group was fed with a normal diet. All mice were allowed free access to food. One week after modeling, each group of mice was administered the respective treatment via oral gavage once daily in the afternoon for two consecutive weeks. The control group and the model group received vehicle under a same condition. The adenine-containing diet was continuously administered for modeling throughout the treatment period until the end of the experiment. The physical condition of the mice was monitored, and body weight was measured and recorded weekly. Blood samples were collected from the orbital venous plexus at 1 week (post-modeling) and 3 weeks (after 2 weeks of treatment). Serum was separated for the measurement of serum creatinine (CRE) and blood urea nitrogen (BUN). At the end of the two-week treatment, renal function of each group was assessed using a TGFR renal function monitoring and smart analysis system. After testing, tissues were collected from the mice to confirm the efficacy of the treatment.
(§3) Statistical analyses were performed using GraphPad Prism 8.0 software. Continuous data of each group were expressed as mean+SD. One-way ANOVA was used for multi-group comparisons, and Student's t-test was used for comparisons between two groups. A p-value<0.05 was considered statistically significant. For categorical data, chi-square tests were used to compare between groups, with p<0.05 indicating a statistically significant difference.
One week later, LY2922470 or TAK875 was administrated for treatment. […]

[2] = tested on: mice with two-week adenine-induced renal failure; assay: Glomerular filtration rate in mice with two-week adenine-induced renal failure; conditions: adenine diet replaced with normal chow after two weeks; LY2922470 p.o.; FIG. 5
Source text: Therefore, the modeling protocol was redesigned to re-evaluate the therapeutic effect of LY2922470 on renal failure (the adenine diet was replaced with normal chow after two weeks of feeding; other conditions remained unchanged).

[3] = tested on: mice with adenine-induced renal failure; assay: Serum creatinine (CREA) in adenine-induced renal failure mice; conditions: for CREA after modeling for 3 weeks (after drug administration for 2 weeks) / CREA after modeling for 1 week (before drug administration): mean ± SD
Method: as §1, §2, §3
(§4) Mice were fed a 0.25% adenine-containing diet. After one week, the mice were treated with LY2922470 or TAK875. During the treatment period, the adenine-containing diet was continued for modeling. After three weeks of adenine feeding (i.e., two weeks of drug administration), blood samples were collected from the mice, and serum was isolated for CREA and BUN measurements.

[4] = tested on: mice with adenine-induced renal failure; assay: Blood urea nitrogen (BUN) in adenine-induced renal failure mice; conditions: for BUN after modeling for 3 weeks (after drug administration for 2 weeks) / BUN after modeling for 1 week (before drug administration): mean ± SD
Method: as §1, §2, §3, §4

[5] = tested on: mice with adenine-induced renal failure; assay: Renal fibrosis by Masson's trichrome staining in adenine-induced renal failure mice; conditions: LY2922470 30 mg/kg/day orally for 2 weeks; 3 weeks of modeling; FIG. 6
Method: Mice were modeled and administered drugs as described in Example 3. After two weeks of drug administration, the mice were euthanized, and their kidneys were fixed, sectioned, stained with Masson's trichrome, and analyzed.
Whole-slide scanning was performed using a fully automated digital pathology scanner KF-PRO-120 from Ningbo Jiangfeng Bioinformatics Technology Co., Ltd. Masson-stained images were analyzed using the Area Quantification module in HALO software. The blue staining of collagen fibers was used as the unified criterion for positivity. The images were analyzed, and the percentage of blue-stained collagen fibers in the tissue was calculated.
Statistical analysis was conducted using GraphPad Prism 8.0. Continuous data for each group were expressed as mean+SD. One-way ANOVA was used for multi-group comparisons, and Student's t-test was used for comparisons between two groups. A p-value<0.05 was considered statistically significant. For categorical data, chi-square tests were used for comparisons among groups, and a p-value<0.05 was considered statistically significant.

[6] = LY2922470 30 mg/kg p.o. QD for 2 weeks
[7] = LY2922470 at different doses p.o. QD for 2 weeks
[8] = based on Tables 2 and 3 (CREA and BUN), p.o.
[9] = baseline of the LY2922470 10 mg/kg group
[10] = baseline of the LY2922470 30 mg/kg group
[11] = baseline of the LY2922470 60 mg/kg group

SMILES: CC#C[C@@H](CC(=O)O)c1ccc(OCc2ccc(CN3CCCc4cccc(OC)c43)s2)cc1 [LY2922470]
- Renal function (GFR) improvement among the doses [1, 6]: most significant improvement
- Renal function (GFR) compared with the model group ([1]; LY2922470 at different doses (10, 30, 60 mg/kg p.o. QD) for 2 weeks): improved
- Renal function (GFR) compared with the model group [2]: significantly improved
- CREA level compared with the model group [3, 6]: significantly decreased
- CREA after modeling for 3 weeks (after drug administration for 2 weeks) ([3]; LY2922470 30 mg/kg p.o. QD): 79.67 ± 19.28 µmol/L
- CREA level compared with the model group ([3]; LY2922470 60 mg/kg p.o. QD for 2 weeks): significantly decreased
- CREA after modeling for 3 weeks (after drug administration for 2 weeks) ([3]; LY2922470 60 mg/kg p.o. QD): 66.47 ± 13.35 µmol/L
- Serum CREA level compared with the model group [3, 7]: reduced
- Dose with the best effect (CREA, BUN) [3, 8]: 30 mg/kg/day
- Doses with therapeutic efficacy (CREA, BUN) [3, 8]: 30 to 60 mg/kg/day
- CREA after modeling for 1 week (before drug administration) [3, 9]: 56.14 ± 13.41 µmol/L
- CREA after modeling for 1 week (before drug administration) [3, 10]: 54.85 ± 17.55 µmol/L
- CREA after modeling for 1 week (before drug administration) [3, 11]: 57.02 ± 11.90 µmol/L
- BUN level compared with the model group [4, 6]: statistically significant reduction
- BUN after modeling for 3 weeks (after drug administration for 2 weeks) ([4]; LY2922470 30 mg/kg p.o. QD): 15.15 ± 4.53 mmol/L
- BUN after modeling for 3 weeks (after drug administration for 2 weeks) ([4]; LY2922470 60 mg/kg p.o. QD): 13.85 ± 1.33 mmol/L
- Serum BUN level compared with the model group [4, 7]: reduced
- BUN after modeling for 1 week (before drug administration) [4, 9]: 10.34 ± 3.55 mmol/L
- BUN after modeling for 1 week (before drug administration) [4, 10]: 10.25 ± 3.42 mmol/L
- BUN after modeling for 1 week (before drug administration) [4, 11]: 10.40 ± 3.83 mmol/L
- Collagen deposition (Masson staining) [5]: decreased
- Degree of renal fibrosis (Masson staining) [5]: alleviated
- Extracellular matrix (ECM) accumulation [5]: inhibited
